Results from patent US8809377B2, “Deubiquitinase inhibitors and methods for use of the same” (The Regents of the University of Michigan, priority 2010, dated 2014).
“Also recorded” adds a separate entry of the source.

Columns and labels:
20S proteasome = target: T1, 20S proteasome (Homo sapiens, UniProt P28074); assay: Proteasome activity assay in treated cells (Suc-LLVY-AMC); format: cell-based; details: 5 μM, 2 hr
T1 construct: endogenous in cells; host or cells: K562 and other CML lines, Z138
T1 sequence (P28074 60-263): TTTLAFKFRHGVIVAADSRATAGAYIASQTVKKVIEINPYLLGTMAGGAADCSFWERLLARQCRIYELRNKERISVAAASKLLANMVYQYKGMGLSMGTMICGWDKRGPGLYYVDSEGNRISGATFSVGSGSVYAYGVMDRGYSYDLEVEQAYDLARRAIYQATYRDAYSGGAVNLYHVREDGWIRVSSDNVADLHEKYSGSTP
Protocol: Fluorogenic substrate Suc-LLVY-AMC was used to assay for the chymotryptic-like activity of the 20S proteasome. To assay for in vivo proteasome inhibition cells were treated with WP1130 (5 μM) or MG132 (5 μM) for 2 hours and lysed in ice-cold lysis buffer (50 mM HEPES, pH 7.5, 5 mM EDTA, 150 mM NaCl, 1% Triton X-100). Lysates were clarified by centrifugation at 20,000 RCF for 10 min and equal amounts of protein from each sample were incubated at 37° C. with 100 μM fluorogenic substrate. To assay for direct inhibition of the 20S proteasome in vitro, purified 20S human proteasome (200 ng) was incubated with WP1130 (5 μM), MG132 (5 μM) or Lactacystin (5 μM) for 30 min at 37° C. before addition of the substrates. Fluorescence intensity was measured using a spectrophotometer at excitation 360 nm & emission 460 nm. Assays were performed in triplicate, and statistical significance was determined with a paired Student's t test.

[1] = test system: CML and melanoma xenografts; assay: Xenograft mouse models of CML and melanoma; format: in vivo
Sindbis virus = Sindbis virus plaque assay; details: African green monkey epithelial cells (Vero), 5 μM, 30 min pre-treatment

SMILES: CCC[C@H](NC(=O)/C(C#N)=C/c1cccc(Br)n1)c1ccccc1 [WP1130]
- 20S proteasome chymotryptic-like activity in intact cells (in vivo) (20S proteasome): did not suppress; also recorded: no significant decline
- tumor growth in vivo [1]: effectively suppresses tumor growth
- Log inhibition by plaque assay (Sindbis virus): 2-2.5 log
- Log inhibition by plaque assay (Sindbis virus; listed as HWP1130): 2 log
